Laboratory results from ChEMBL document CHEMBL3797195, “Bacterial lipid membranes as promising targets to fight antimicrobial resistance, molecular foundations and illustration through the renewal of aminoglycoside antibiotics and emergence of amphiphilic aminoglycosides” (2016).
Values after ≈ are worked out from the molar mass of the structure shown.

Experiments:
Type in all cases: functional
Staphylococcus aureus [1] = test: Antibacterial activity against Staphylococcus aureus ATCC 25923 after 12 to 18 hrs by two fold dilution method
Escherichia coli [2] = test: Antibacterial activity against Escherichia coli ATCC 25922 after 12 to 18 hrs by two fold dilution method
Pseudomonas aeruginosa [3] = test: Antibacterial activity against clinical colistin-resistant Pseudomonas aeruginosa by microdilution method
Escherichia coli [4] = test: Antibacterial activity against Escherichia coli ATCC 25922 after 24 hrs by MTT assay; conditions: ATCC 25922, 24 h
Pseudomonas aeruginosa [5] = test: Antibacterial activity against Pseudomonas aeruginosa after 12 to 18 hrs by MTT assay
Staphylococcus aureus [6] = test: Antibacterial activity against methicillin-resistant Staphylococcus aureus after 24 hrs by MTT assay
Klebsiella pneumoniae = test: Antibacterial activity against Klebsiella pneumoniae after 12 to 18 hrs by MTT assay

SMILES	MIC (Staphylococcus aureus [1])	MIC (Escherichia coli [2])	further results
CCCCCCOC[C@@H]1O[C@@H](O[C@@H]2[C@@H](O)[C@H](O[C@@H]3O[C@@H](CN)[C@H](O)[C@@H](O)[C@@H]3N)[C@@H](N)C[C@H]2N)[C@@H](O)[C@H](O)[C@H]1O (stereo in doubt)	> 32 µg/mL	> 32 µg/mL	–
CCCCCCCCO[C@@H]1[C@@H](O[C@H]2O[C@H](CN)[C@@H](O)[C@H](O)[C@H]2N)[C@H](N)C[C@H](N)[C@H]1O[C@H]1O[C@H](CO)[C@@H](O)[C@H](N)[C@H]1O (stereo in doubt)	> 32 µg/mL	> 32 µg/mL	–
NC[C@H]1O[C@H](O[C@H]2[C@H](O)[C@@H](OCCCCCCCCCc3ccc4ccccc4c3)[C@H](N)C[C@@H]2N)[C@H](N)[C@@H](OCCCCCCCCCc2ccc3ccccc3c2)[C@@H]1O	–	–	MIC (Pseudomonas aeruginosa [3]): 2 µg/mL (≈ 2.42 µM)
NC[C@H]1O[C@H](O[C@H]2[C@H](O)[C@@H](OCCCCc3ccc4ccccc4c3)[C@H](N)C[C@@H]2N)[C@H](N)[C@@H](OCCCCc2ccc3ccccc3c2)[C@@H]1O	–	–	MIC (Pseudomonas aeruginosa [3]): 2 µg/mL (≈ 2.91 µM)
NC[C@H]1O[C@H](O[C@H]2[C@H](O)[C@@H](OCCCc3ccc4ccccc4c3)[C@H](N)C[C@@H]2N)[C@H](N)[C@@H](OCCCc2ccc3ccccc3c2)[C@@H]1O	–	–	MIC (Pseudomonas aeruginosa [3]): 2 µg/mL (≈ 3.04 µM)
CCCCCCCCOC[C@@H]1O[C@@H](O[C@@H]2[C@@H](O)[C@H](O[C@@H]3O[C@@H](CN)[C@H](O)[C@@H](O)[C@@H]3N)[C@@H](N)C[C@H]2N)[C@@H](O)[C@H](O)[C@H]1O (stereo in doubt)	> 32 µg/mL	> 32 µg/mL	–
CCCCCCCCO[C@@H]1[C@@H](O)[C@H](O)[C@H](O[C@H]2[C@H](O)[C@@H](O[C@@H]3O[C@@H](CN)[C@H](O)[C@@H](O)[C@@H]3N)[C@H](N)C[C@@H]2N)O[C@H]1CO (single isomer, unassigned)	> 32 µg/mL	> 32 µg/mL	–
CCCCCCCCO[C@@H]1[C@@H](O)[C@@H](O[C@@H]2[C@@H](O)[C@H](O[C@H]3O[C@H](CN)[C@@H](O)[C@H](O)[C@H]3N)[C@@H](N)C[C@H]2N)O[C@H](CO)[C@H]1O	> 32 µg/mL	> 32 µg/mL	–
CCCCCCCCO[C@@H]1[C@@H](O[C@H]2O[C@H](CN)[C@@H](O)[C@H](O)[C@H]2N)[C@H](N)C[C@H](N)[C@H]1O[C@H]1O[C@H](CO)[C@@H](O)[C@H](O)[C@H]1O (stereo in doubt)	> 32 µg/mL	> 32 µg/mL	–
CCCCCCCCO[C@H]1[C@@H](O[C@@H]2[C@@H](O)[C@H](O[C@H]3O[C@H](CN)[C@@H](O)[C@H](O)[C@H]3N)[C@@H](N)C[C@H]2N)O[C@H](CO)[C@@H](O)[C@@H]1O	> 32 µg/mL	> 32 µg/mL	–
CCCCCCCCO[C@@H]1[C@@H](N)[C@H](O)[C@H](O[C@H]2[C@H](O)[C@@H](O[C@@H]3O[C@@H](CN)[C@H](O)[C@@H](O)[C@@H]3N)[C@H](N)C[C@@H]2N)O[C@H]1CO (single isomer, unassigned)	> 32 µg/mL	> 32 µg/mL	–
CCCCCCCO[C@@H]1[C@@H](OCCCCCCC)[C@H](N)C[C@H](N)[C@H]1O[C@H]1O[C@H](CN)[C@@H](OCCCCCCC)C[C@H]1N	–	–	MIC (Escherichia coli [4]): 4 µg/mL (≈ 6.66 µM); MIC (Pseudomonas aeruginosa [5]): 4 µg/mL (≈ 6.66 µM); MIC (Staphylococcus aureus [6]): 1 µg/mL (≈ 1.66 µM); MIC (Klebsiella pneumoniae): 4 µg/mL (≈ 6.66 µM)
